From ChEMBL document CHEMBL1770074, “Syntheses and characterization of novel oxoisoaporphine derivatives as dual inhibitors for cholinesterases and amyloid beta aggregation” (Eur J Med Chem, 2011)

Columns and labels:
[1] = Inhibition of amyloid beta (1 to 42) aggregation assessed as inhibition of fibril formation at 10 uM by thioflavin-T fluorescent dye assay
[2] = molecular target: Acetylcholinesterase (Electrophorus electricus, UniProt O42275)
Description: Inhibition of electric eel AChE by Ellman's method

[3] = molecular target: Cholinesterase (Equus caballus, UniProt P81908)
Description: Inhibition of equine serum BChE by Ellman's method

[4] = tested on: SH-SY5Y; experiment: cells; details: Homo sapiens, 48 h
Description: Cytotoxicity against human SH-SY5Y cells assessed as cell viability after 48 hrs by MTT assay

Sequence of Cholinesterase (P81908 whole entry): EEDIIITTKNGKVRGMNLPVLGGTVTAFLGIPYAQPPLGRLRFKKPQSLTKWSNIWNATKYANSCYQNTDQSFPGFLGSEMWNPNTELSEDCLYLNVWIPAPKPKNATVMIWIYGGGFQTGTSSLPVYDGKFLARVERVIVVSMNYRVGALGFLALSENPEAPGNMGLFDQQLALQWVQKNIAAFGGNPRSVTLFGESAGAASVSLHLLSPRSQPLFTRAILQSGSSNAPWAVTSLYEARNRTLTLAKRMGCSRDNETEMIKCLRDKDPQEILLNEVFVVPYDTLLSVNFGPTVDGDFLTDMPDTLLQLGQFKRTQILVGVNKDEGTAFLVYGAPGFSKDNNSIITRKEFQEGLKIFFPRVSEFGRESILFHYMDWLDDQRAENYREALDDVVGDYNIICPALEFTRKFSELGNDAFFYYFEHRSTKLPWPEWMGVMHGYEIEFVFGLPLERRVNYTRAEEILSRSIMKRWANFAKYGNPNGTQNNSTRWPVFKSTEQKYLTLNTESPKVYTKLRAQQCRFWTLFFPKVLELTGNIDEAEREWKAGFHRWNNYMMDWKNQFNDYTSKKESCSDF
Sequence of Acetylcholinesterase (O42275 whole entry): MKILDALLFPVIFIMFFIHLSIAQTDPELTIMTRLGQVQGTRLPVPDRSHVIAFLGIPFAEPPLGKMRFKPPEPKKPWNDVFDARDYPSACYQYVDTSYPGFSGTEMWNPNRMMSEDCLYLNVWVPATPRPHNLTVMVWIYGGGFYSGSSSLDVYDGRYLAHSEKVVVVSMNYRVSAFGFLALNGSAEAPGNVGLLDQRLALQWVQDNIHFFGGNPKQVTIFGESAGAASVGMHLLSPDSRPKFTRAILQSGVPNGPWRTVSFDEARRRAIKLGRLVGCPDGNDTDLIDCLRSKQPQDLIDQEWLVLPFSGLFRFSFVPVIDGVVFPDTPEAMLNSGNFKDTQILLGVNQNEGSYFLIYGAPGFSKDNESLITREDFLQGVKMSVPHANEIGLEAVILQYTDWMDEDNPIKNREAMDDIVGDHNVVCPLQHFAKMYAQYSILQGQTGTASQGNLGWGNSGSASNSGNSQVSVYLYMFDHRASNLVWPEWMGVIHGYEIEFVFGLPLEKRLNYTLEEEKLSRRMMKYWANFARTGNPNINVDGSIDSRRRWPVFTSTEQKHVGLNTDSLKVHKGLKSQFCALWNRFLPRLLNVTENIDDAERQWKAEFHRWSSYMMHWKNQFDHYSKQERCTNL

SMILES | inhibition [1] [%] | IC50 [2] [µM] | IC50 [3] [µM] | IC50 [4] [µM]
O=C1c2ccccc2-c2ncc(OCCN3CCCC3)c3cccc1c23 | 31.8 | 0.471 | 0.79 | 12
CN(C)CCOc1cnc2c3c(cccc13)C(=O)c1ccccc1-2 | 14.3 | 1.56 | 1.64 | 16.2
CN1CCN(CCCOc2ccc3c4c(nccc24)-c2ccccc2C3=O)CC1 | 33.6 | 0.405 | 5.5 | > 25
CN1CCN(CCOc2ccc3c4c(nccc24)-c2ccccc2C3=O)CC1 | 43 | 0.432 | 2.75 | > 25
C[N+]1(CC(=O)Nc2ccc3c(c2)C(=O)c2cccc4ccnc-3c24)CCCC1 | 52 |  |  | > 25
CN(C)CCCNc1ccc2c3c(nccc13)-c1ccccc1C2=O | 57.6 | 0.398 | 3.35 | > 25
O=C(CCN1CCCC1)Nc1ccc2c(c1)C(=O)c1cccc3ccnc-2c13 | 69.8 |  |  | 4.57
C[N+]1(CCOc2cnc3c4c(cccc24)C(=O)c2ccccc2-3)CCCCC1 | 50.9 | 0.095 | 0.255 | > 25
O=C(CN1CCCC1)Nc1ccc2c(c1)C(=O)c1cccc3ccnc-2c13 | 45.4 |  |  | 5.37
C[N+](C)(C)CCOc1cnc2c3c(cccc13)C(=O)c1ccccc1-2 | 42 | 0.933 | 0.972 | > 25
CCN(CC)CCOc1ccc2c3c(nccc13)-c1ccccc1C2=O | 10.7 | 0.201 | 3.07 | > 25
O=C1c2ccccc2-c2nccc3c(OCCN4CCCCC4)ccc1c23 | 38.9 | 0.088 | 2.21 | > 25
CN(C)CCC(=O)Nc1ccc2c(c1)C(=O)c1cccc3ccnc-2c13 | 69.8 |  |  | 4.14
C[N+]1(CCC(=O)Nc2ccc3c(c2)C(=O)c2cccc4ccnc-3c24)CCCC1 | 85.9 |  |  | 2.12
C[N+](C)(C)CCCC(=O)Nc1ccc2c(c1)C(=O)c1cccc3ccnc-2c13 | 58.6 |  |  | > 25
CCN(CC)CCOc1cnc2c3c(cccc13)C(=O)c1ccccc1-2 | 3.88 | 0.7 | 1.49 | 9.21
C[N+](C)(C)CCC(=O)Nc1ccc2c(c1)C(=O)c1cccc3ccnc-2c13 | 80.1 |  |  | > 25
CN(C)CCCC(=O)Nc1ccc2c(c1)C(=O)c1cccc3ccnc-2c13 | 65.2 |  |  | 3.27
CC[N+](C)(CC)CCC(=O)Nc1ccc2c(c1)C(=O)c1cccc3ccnc-2c13 | 82.7 |  |  | > 25
COc1cc(/C=C/C(=O)CC(=O)/C=C/c2ccc(O)c(OC)c2)ccc1O | 33.3 |  |  | 
CCN(CC)CCCOc1ccc2c3c(nccc13)-c1ccccc1C2=O | 14 | 0.0343 | 2.7 | > 25
C[N+]1(CCOc2cnc3c4c(cccc24)C(=O)c2ccccc2-3)CCCC1 | 48.8 | 0.145 | 0.302 | > 25
CCN(CC)CCC(=O)Nc1ccc2c(c1)C(=O)c1cccc3ccnc-2c13 | 62.5 |  |  | 3.94
CC[N+](C)(CC)CCOc1cnc2c3c(cccc13)C(=O)c1ccccc1-2 | 45.5 | 0.258 | 0.708 | > 25
O=C1c2ccccc2-c2nccc3c(OCCCN4CCCCC4)ccc1c23 | 40.1 | 0.022 | 0.905 | > 25
O=C1c2ccccc2-c2ncc(OCCN3CCCCC3)c3cccc1c23 | 34.2 | 0.375 | 0.723 | > 25
